Results published in PMC2248166, “Quantitative peptide binding motifs for 19 human and mouse MHC class I molecules derived using positional scanning combinatorial peptide libraries” (Immunome Research, 2008).
Where a SMILES comes first, the peptide text is derived from it.

Target: HLA B*1503 (Homo sapiens, UniProt P01889, A329T/A93T/A95T/C349S/D201E/D98Y/E187L/E204Q/K202T/N87E/Q94N/R155S/R180L/S121R/S35A/V306I/V36M/Y140S/Y91S)
Test: biochemical
Type: binding

## CC[C@H](C)[C@H](NC(=O)[C@@H](NC(=O)[C@H](CC(C)C)NC(=O)[C@H](CCSC)NC(=O)[C@H](CCCCN)NC(=O)[C@@H](N)CC(N)=O)[C@@H](C)O)C(=O)N[C@H](C(=O)N[C@@H](CO)C(=O)N[C@@H](Cc1ccccc1)C(=O)O)[C@@H](C)O [3102.1234] (H-NKMLTITSF-OH)
  IC50: 1.4 nM

## C[C@H](NC(=O)[C@@H](N)CCCNC(=N)N)C(=O)N[C@@H](CO)C(=O)N[C@@H](CO)C(=O)NCC(=O)N[C@@H](CC(=O)O)C(=O)N[C@@H](CO)C(=O)N[C@@H](CO)C(=O)N[C@@H](Cc1ccccc1)C(=O)O [3102.1236] (H-RASSGDSSF-OH)
  IC50: 21 nM

## CC(C)C[C@H](NC(=O)[C@@H](NC(=O)[C@H](CCCNC(=N)N)NC(=O)[C@H](CC(N)=O)NC(=O)[C@H](CC(N)=O)NC(=O)[C@H](CCCCN)NC(=O)[C@@H](N)CCCCN)C(C)C)C(=O)N[C@@H](CS)C(=O)N[C@@H](Cc1ccccc1)C(=O)O [3102.1237] (H-KKNNRVLCF-OH)
  IC50: 1.6 nM

## CC[C@H](C)[C@H](N)C(=O)N[C@@H](CCCCN)C(=O)N[C@@H](CCCNC(=N)N)C(=O)N[C@H](C(=O)N[C@@H](CO)C(=O)N[C@@H](CO)C(=O)N[C@@H](CO)C(=O)N[C@@H](CC(=O)O)C(=O)N[C@@H](Cc1ccccc1)C(=O)O)C(C)C [3102.1239] (H-IKRVSSSDF-OH)
  IC50: 1.8 nM

## CC(C)C[C@H](NC(=O)[C@H](CC(C)C)NC(=O)[C@H](CCCNC(=N)N)NC(=O)[C@H](CCCNC(=N)N)NC(=O)[C@@H](NC(=O)[C@H](Cc1c[nH]cn1)NC(=O)[C@@H](N)Cc1ccccc1)C(C)C)C(=O)N[C@@H](CCCCN)C(=O)N[C@@H](Cc1ccccc1)C(=O)O [3102.1241] (H-FHVRRLLKF-OH)
  IC50: 21 nM

## CC[C@H](C)[C@H](NC(=O)[C@H](CS)NC(=O)[C@@H](NC(=O)[C@H](CC(N)=O)NC(=O)[C@@H]1CCCN1C(=O)[C@H](Cc1ccc(O)cc1)NC(=O)[C@H](CC(C)C)NC(=O)[C@@H](N)CO)C(C)C)C(=O)N[C@@H](Cc1ccccc1)C(=O)O [3102.1246] (H-SLYPNVCIF-OH)
  IC50: 4.9 nM

## CSCC[C@H](NC(=O)[C@@H](N)CCCNC(=N)N)C(=O)N[C@@H](Cc1ccccc1)C(=O)NCC(=O)N[C@@H](CO)C(=O)N[C@@H](CCCCN)C(=O)N1CCC[C@H]1C(=O)N[C@H](C(=O)N[C@@H](Cc1ccccc1)C(=O)O)[C@@H](C)O [3102.1247] (H-RMFGSKPTF-OH)
  IC50: 0.21 nM

## CSCC[C@H](NC(=O)[C@H](CCCCN)NC(=O)[C@H](CCC(N)=O)NC(=O)[C@@H](N)CCCCN)C(=O)N[C@@H](Cc1ccccc1)C(=O)N[C@@H](CO)C(=O)N[C@@H](CC(N)=O)C(=O)N[C@@H](CC(N)=O)C(=O)N[C@H](C(=O)O)C(C)C [3102.1248] (H-KQKMFSNNV-OH)
  IC50: 19 nM

## CSCC[C@H](NC(=O)[C@@H](N)CC(C)C)C(=O)N[C@H](C(=O)N[C@@H](CO)C(=O)NCC(=O)N1CCC[C@H]1C(=O)N[C@@H](CC(N)=O)C(=O)N[C@H](C(=O)N[C@H](C(=O)O)C(C)C)C(C)C)C(C)C [3102.1249] (H-LMVSGPNVV-OH)
  IC50: 3.8 nM

## CC[C@H](C)[C@H](N)C(=O)N[C@@H](CCCCN)C(=O)N[C@H](C(=O)N[C@H](C(=O)N[C@@H](C)C(=O)N[C@@H](C)C(=O)N[C@@H](CO)C(=O)N1CCC[C@H]1C(=O)N[C@@H](CCSC)C(=O)O)[C@@H](C)O)C(C)C [3102.1251] (H-IKVTAASPM-OH)
  IC50: 2.8 nM

## CSCC[C@H](NC(=O)[C@@H](N)CCCCN)C(=O)N[C@@H](C)C(=O)N[C@@H](C)C(=O)N[C@@H](CC(=O)O)C(=O)N[C@@H](CCCNC(=N)N)C(=O)NCC(=O)N[C@@H](C)C(=O)N[C@@H](Cc1ccccc1)C(=O)O [3102.1255] (H-KMAADRGAF-OH)
  IC50: 2.5 nM

## CC(C)[C@H](NC(=O)[C@H](CCCCN)NC(=O)[C@@H](N)CCCCN)C(=O)N[C@@H](Cc1ccc(O)cc1)C(=O)N[C@H](C(=O)N[C@@H](Cc1ccccc1)C(=O)N[C@@H](Cc1ccccc1)C(=O)N[C@@H](CCCCN)C(=O)N[C@@H](Cc1ccccc1)C(=O)O)[C@@H](C)O [3102.1257] (H-KKVYTFFKF-OH)
  IC50: 3.6 nM

## CC[C@H](C)[C@H](NC(=O)[C@H](Cc1ccc(O)cc1)NC(=O)[C@H](CCC(N)=O)NC(=O)[C@@H](N)Cc1ccc(O)cc1)C(=O)N[C@@H](Cc1ccccc1)C(=O)N[C@@H](CC(C)C)C(=O)N[C@@H](CO)C(=O)N[C@@H](Cc1ccccc1)C(=O)N[C@@H](Cc1ccccc1)C(=O)O [3102.1259]
  IC50: 0.94 nM

## CC[C@H](C)[C@H](N)C(=O)N[C@@H](CC(C)C)C(=O)N[C@@H](Cc1c[nH]cn1)C(=O)N[C@H](C(=O)N[C@@H](CC(=O)O)C(=O)N[C@H](C(=O)N[C@@H](CC(C)C)C(=O)N[C@@H](CO)C(=O)N[C@@H](Cc1ccccc1)C(=O)O)[C@@H](C)CC)C(C)C [3102.1261] (H-ILHVDILSF-OH)
  IC50: 24 nM

## CC(C)C[C@H](NC(=O)[C@H](CCC(=O)O)NC(=O)[C@@H](NC(=O)[C@H](CO)NC(=O)[C@H](CO)NC(=O)[C@@H](NC(=O)[C@H](CCC(N)=O)NC(=O)[C@@H](N)CO)C(C)C)[C@@H](C)O)C(=O)N[C@@H](Cc1ccccc1)C(=O)O [3102.1264] (H-SQVSSTELF-OH)
  IC50: 1.8 nM

## CC(C)C[C@H](N)C(=O)N[C@@H](CCCCN)C(=O)N[C@@H](Cc1ccc(O)cc1)C(=O)N[C@@H](Cc1ccc(O)cc1)C(=O)N[C@@H](Cc1ccc(O)cc1)C(=O)N[C@@H](CO)C(=O)N[C@@H](CC(N)=O)C(=O)N[C@@H](CO)C(=O)N[C@@H](Cc1ccc(O)cc1)C(=O)O [3102.1265] (H-LKYYYSNSY-OH)
  IC50: 0.24 nM

## CC(C)C[C@H](NC(=O)[C@H](CC(N)=O)NC(=O)[C@H](C)NC(=O)[C@H](CO)NC(=O)[C@H](CC(C)C)NC(=O)[C@H](CCCNC(=N)N)NC(=O)[C@H](CC(C)C)NC(=O)[C@@H](N)Cc1ccccc1)C(=O)N[C@@H](Cc1ccccc1)C(=O)O [3102.1266] (H-FLRLSANLF-OH)
  IC50: 0.12 nM

## CC(C)[C@H](NC(=O)[C@H](Cc1ccc(O)cc1)NC(=O)[C@H](CCCNC(=N)N)NC(=O)[C@@H](NC(=O)[C@H](CC(N)=O)NC(=O)[C@H](Cc1ccc(O)cc1)NC(=O)[C@H](CCCCN)NC(=O)[C@@H](N)CCCCN)C(C)C)C(=O)N[C@@H](Cc1ccccc1)C(=O)O [3102.1267] (H-KKYNVRYVF-OH)
  IC50: 1 nM

## CSCC[C@H](NC(=O)[C@H](C)N)C(=O)N[C@@H](CCCCN)C(=O)N[C@H](C(=O)N[C@@H](CC(=O)O)C(=O)N[C@@H](C)C(=O)N[C@@H](CC(N)=O)C(=O)N[C@@H](Cc1ccc(O)cc1)C(=O)N[C@@H](Cc1ccccc1)C(=O)O)C(C)C [3102.1268] (H-AMKVDANYF-OH)
  IC50: 0.15 nM

## CC(C)C[C@H](NC(=O)[C@@H](N)Cc1ccccc1)C(=O)N[C@@H](CO)C(=O)N[C@@H](CCC(=O)O)C(=O)N1CCC[C@H]1C(=O)N[C@@H](Cc1ccc(O)cc1)C(=O)N[C@@H](CO)C(=O)N[C@@H](Cc1ccc(O)cc1)C(=O)N[C@@H](Cc1ccccc1)C(=O)O [3102.1270] (H-FLSEPYSYF-OH)
  IC50: 29 nM

## CC(C)[C@H](NC(=O)[C@H](Cc1ccccc1)NC(=O)[C@H](Cc1c[nH]cn1)NC(=O)[C@H](CCC(N)=O)NC(=O)[C@@H](N)Cc1ccc(O)cc1)C(=O)N[C@@H](C)C(=O)N[C@@H](CCCNC(=N)N)C(=O)N[C@H](C(=O)N[C@@H](Cc1ccccc1)C(=O)O)C(C)C [3102.1278] (H-YQHFVARVF-OH)
  IC50: 0.4 nM

## CC(C)C[C@H](N)C(=O)N[C@@H](CCCCN)C(=O)N[C@@H](CO)C(=O)N1CCC[C@H]1C(=O)N[C@@H](CCCCN)C(=O)N[C@@H](CCCNC(=N)N)C(=O)N[C@@H](CS)C(=O)N[C@@H](CO)C(=O)N[C@@H](Cc1ccccc1)C(=O)O [3102.1282] (H-LKSPKRCSF-OH)
  IC50: 2.7 nM

## CSCC[C@H](NC(=O)[C@H](Cc1ccc(O)cc1)NC(=O)[C@H](CC(N)=O)NC(=O)[C@H](Cc1ccc(O)cc1)NC(=O)[C@H](CO)NC(=O)[C@H](CCCCN)NC(=O)[C@@H](NC(=O)[C@H](CCCCN)NC(=O)[C@@H](N)CCCNC(=N)N)C(C)C)C(=O)O [3102.1285] (H-RKVKSYNYM-OH)
  IC50: 2.6 nM

## CSCC[C@H](N)C(=O)N[C@@H](CCCCN)C(=O)N[C@@H](Cc1ccc(O)cc1)C(=O)N[C@@H](CS)C(=O)N[C@@H](CO)C(=O)N[C@@H](Cc1ccc(O)cc1)C(=O)N[C@@H](CCC(N)=O)C(=O)N[C@@H](CO)C(=O)N[C@@H](Cc1ccccc1)C(=O)O [3102.1287] (H-MKYCSYQSF-OH)
  IC50: 1.6 nM

## CC(C)C[C@H](N)C(=O)N[C@@H](CCCCN)C(=O)N[C@H](C(=O)N[C@H](C(=O)N[C@@H](Cc1ccccc1)C(=O)N[C@H](C(=O)N[C@@H](Cc1c[nH]cn1)C(=O)N1CCC[C@H]1C(=O)N[C@@H](Cc1ccccc1)C(=O)O)C(C)C)[C@@H](C)O)[C@@H](C)O [3102.1294] (H-LKTTFVHPF-OH)
  IC50: 1.3 nM

## CC[C@H](C)[C@H](NC(=O)[C@H](CO)NC(=O)[C@H](CCCNC(=N)N)NC(=O)[C@H](CCCNC(=N)N)NC(=O)[C@@H](NC(=O)[C@@H](NC(=O)[C@@H](NC(=O)[C@H](CCCCN)NC(=O)[C@@H](N)Cc1ccccc1)C(C)C)[C@@H](C)O)[C@@H](C)O)C(=O)O [3102.1295] (H-FKVTTRRSI-OH)
  IC50: 4.6 nM

## CC[C@H](C)[C@H](NC(=O)[C@H](CO)NC(=O)[C@@H](NC(=O)[C@H](C)NC(=O)[C@H](CC(C)C)NC(=O)[C@H](CC(N)=O)NC(=O)[C@H](CCCCN)NC(=O)[C@@H](N)Cc1ccccc1)[C@@H](C)O)C(=O)N[C@@H](Cc1ccc(O)cc1)C(=O)O [3102.1297] (H-FKNLATSIY-OH)
  IC50: 1.6 nM

## CC[C@H](C)[C@H](NC(=O)[C@H](CC(=O)O)NC(=O)[C@@H](NC(=O)[C@H](Cc1ccccc1)NC(=O)[C@@H](NC(=O)[C@H](CCCCN)NC(=O)[C@@H](N)Cc1ccc(O)cc1)C(C)C)[C@@H](C)O)C(=O)N[C@@H](CO)C(=O)N[C@@H](CCSC)C(=O)O [3102.1298] (H-YKVFTDISM-OH)
  IC50: 2.2 nM

## CSCC[C@H](NC(=O)[C@H](CCCCN)NC(=O)[C@H](CS)NC(=O)[C@H](CO)NC(=O)[C@H](CO)NC(=O)[C@H](CCC(N)=O)NC(=O)[C@@H](N)CCCNC(=N)N)C(=O)N[C@@H](C)C(=O)N[C@@H](CC(C)C)C(=O)O [3102.1299] (H-RQSSCKMAL-OH)
  IC50: 19 nM

## CC[C@H](C)[C@H](NC(=O)[C@H](CO)NC(=O)[C@H](CC(C)C)NC(=O)[C@@H](NC(=O)[C@H](CCCCN)NC(=O)[C@@H](N)Cc1c[nH]c2ccccc12)C(C)C)C(=O)N[C@@H](CCSC)C(=O)N[C@@H](C)C(=O)N[C@@H](Cc1ccccc1)C(=O)O [3102.1300] (H-WKVLSIMAF-OH)
  IC50: 9.3 nM
